Measured values as given in PubChem BioAssay (NCI).
“And” between values parts separate entries of the source, which are not always exact repeats. Equal values may be shown once.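 Grown in 96-well plates, cells were treated for 48 hours with each compound at five concentrations. Insufficient inhibition: endpoint recorded as highest concentration tested. GI50 marks 50% less growth. TGI marks complete inhibition of growth.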

Columns and labels:
Assay in all cases: DTP human tumour cell line panel, 48 h
SNB-19 CNS = test system: SNB-19 CNS
IGROV1 ovarian = test system: IGROV1 ovarian
HCT-15 colon = test system: HCT-15 colon
SF-295 CNS = test system: SF-295 CNS
NCI-H23 lung = test system: NCI-H23 lung
BT-549 breast = test system: BT-549 breast
SW-620 colon = test system: SW-620 colon
OVCAR-3 ovarian = test system: OVCAR-3 ovarian
RPMI-8226 leukemia = test system: RPMI-8226 leukemia
OVCAR-4 ovarian = test system: OVCAR-4 ovarian

Row | Structure (SMILES) | TGI (SNB-19 CNS) | TGI (IGROV1 ovarian) | TGI (HCT-15 colon) | TGI (SF-295 CNS) | TGI (NCI-H23 lung) | TGI (BT-549 breast) | TGI (SW-620 colon) | TGI (OVCAR-3 ovarian) | TGI (RPMI-8226 leukemia) | GI50 (SNB-19 CNS) | GI50 (IGROV1 ovarian) | GI50 (HCT-15 colon) | GI50 (SF-295 CNS) | GI50 (NCI-H23 lung) | GI50 (SW-620 colon) | GI50 (OVCAR-4 ovarian) | TGI (OVCAR-4 ovarian) | GI50 (OVCAR-3 ovarian) | GI50 (RPMI-8226 leukemia) | GI50 (BT-549 breast)
1 | O=C1Cc2c(-c3ccccc3)cc(-c3ccccc3)nc2-c2ccccc2N1 | 8.76 µM | 68.5 µM | 4.4 µM | 10.7 µM | 36.6 µM | 22.5 µM | 82.5 µM | 21.4 µM | > 100 µM |  |  |  |  |  |  |  |  |  |  | 
2 | COc1cccc(/C=N/[N-]C(=O)c2ccncc2)c1[O-].[Mn+2].[OH3+] | > 100 µM | > 100 µM | > 100 µM | > 100 µM | 41.1 µM |  | > 100 µM | > 100 µM | > 100 µM | 42 µM | 8.29 µM | 4.14 µM | 16.2 µM | 8.12 µM | 4.42 µM | 22.1 µM | > 100 µM | 3.51 µM | 6 µM | 
3 | CCc1cccc(C(C)C)c1NC(=O)CC1Sc2ccccc2NC1=O (centres undefined) | > 100 µM | > 100 µM | > 100 µM | > 100 µM | > 100 µM |  | > 100 µM | > 100 µM | > 100 µM |  |  |  |  |  |  |  | > 100 µM |  |  | 
4 | Cc1noc2cccc(O)c12 | > 100 µM | > 100 µM | > 100 µM | > 100 µM | > 100 µM |  | > 100 µM | > 100 µM |  |  |  |  |  |  |  |  | > 100 µM |  |  | 
5 | Cc1ccccc1NC(=O)CC1C(=O)Nc2ccccc2S1=O (centres undefined) | > 100 µM | > 100 µM | > 100 µM | > 100 µM | > 100 µM |  | > 100 µM | > 100 µM | > 100 µM |  |  |  |  |  |  |  | > 100 µM |  |  | 
6 | NC1=NN(c2ccccc2)C(=O)C1C(=O)C(=O)Nc1ccc(Cl)cc1 (centres undefined) |  | > 100 µM | > 100 µM | > 100 µM | > 100 µM |  | > 100 µM | > 100 µM | > 100 µM |  |  |  |  |  |  |  | > 100 µM |  |  | 
7 | CCOC(=O)/C(=C/CC/C(C)=C/CC/C(C)=C/CCc1ccoc1)CC(=O)N1CCCCC1 | 41.3 µM | 47.2 µM | 12.5 µM | 5.08 µM | 15.1 µM | 17.2 µM | 19.2 µM | 12.3 µM | 5.47 µM | 4.05 µM | 14 µM | 3.01 µM | 1.55 µM | 3.12 µM | 4.8 µM |  |  | 3.44 µM | 1.87 µM | 4.03 µM
8 | NC(Cc1ccccc1)C(=O)OCN1C(=O)C2C3C=CC(C2C1=O)C1C2C(=O)N(COC(=O)C(N)Cc4ccccc4)C(=O)C2C31 (centres undefined) | > 100 µM | > 100 µM and 70.7 µM | 35.2 µM and 35.3 µM | > 100 µM | 38.1 µM and 42.7 µM |  | 51.3 µM and 52.8 µM | 87 µM and 67.7 µM | 56.4 µM and 44.7 µM |  |  |  |  |  |  |  | 34 µM and 44.5 µM |  |  | 
9 | CC(C)N(C(=O)C12C3C4C1C1C2C3C41C(=O)C(C)(C)C)C(C)C (centres undefined) | > 100 µM | > 100 µM |  | > 100 µM | > 100 µM |  | > 100 µM | > 100 µM | > 100 µM |  |  |  |  |  |  |  | > 100 µM |  |  | 
10 | CC(C)C[C@H](CC(=O)O)C(=O)N[C@@H](Cc1c[nH]c2ccccc12)C(=O)N[C@@H](C)c1ccccc1 | > 25 µM | > 25 µM | > 25 µM | > 25 µM | > 25 µM | > 25 µM | > 25 µM | > 25 µM |  | > 25 µM | > 25 µM | > 25 µM | > 25 µM | > 25 µM | > 25 µM | > 25 µM | > 25 µM | > 25 µM |  | > 25 µM
11 | C#CCN(N=O)C(=O)NC(CCCCNC(=O)OCc1ccccc1)C(=O)OCc1ccccc1 (centres undefined) | > 100 µM | > 100 µM | 47.2 µM | > 100 µM | > 100 µM |  | 41 µM | > 100 µM | 45.9 µM |  |  |  |  |  |  |  | 72.8 µM |  |  | 
12 | CC(Oc1cc2oc(=O)cc(-c3ccccc3)c2cc1Cl)C(=O)O (centres undefined) | > 100 µM | > 100 µM |  | > 100 µM | > 100 µM |  | > 100 µM | > 100 µM |  |  |  |  |  |  |  |  | > 100 µM |  |  | 
13 | COC(=O)C(=O)C(CC(=O)Nc1cc(Cl)ccc1Cl)C(=O)OC (centres undefined) | > 100 µM | > 100 µM | > 100 µM | > 100 µM | > 100 µM |  | > 100 µM | > 100 µM | > 100 µM |  |  |  |  |  |  |  | > 100 µM |  |  | 
14 | CC1=C(C(=O)Nc2cccc(Cl)c2)C(c2ccccc2O)C(C(=O)Nc2cccc(Cl)c2)=C(C)N1 | 52.1 µM | 70.7 µM |  | 40.6 µM | 33.1 µM |  | 35.8 µM | 40 µM | 46 µM |  |  |  |  |  |  |  | 35.6 µM |  |  | 
15 | CCCCCCCCCCC(=O)CCCCCCC(=O)O | > 100 µM | 34.9 µM | 28 µM | 48.7 µM | 98.4 µM |  | 55.7 µM | 40 µM | 32.3 µM |  |  |  |  |  |  |  | > 100 µM |  |  | 
16 | N#CCc1c(F)c(F)c(F)c(F)c1F | > 100 µM | > 100 µM | > 100 µM | > 100 µM | > 100 µM | > 100 µM | > 100 µM |  | > 100 µM |  |  |  |  |  |  |  |  |  |  | 
17 | Oc1ccc2ccccc2c1CCc1c(O)ccc2ccccc12 | 32.4 µM |  | 28 µM | 28.7 µM | 26.1 µM |  | 28.4 µM | 17.4 µM | 22 µM |  |  |  |  |  |  |  |  |  |  | 
18 | N#CCCN(CCC#N)c1ccc(/C=C(/NC(=O)c2cc([N+](=O)[O-])ccc2Cl)C(=O)N=[N+]=[N-])cc1 | > 100 µM | > 100 µM | > 100 µM | > 100 µM | > 100 µM |  | > 100 µM | > 100 µM | > 100 µM |  |  |  |  |  |  |  | > 100 µM |  |  | 
19 | O=C(CCc1nc(=S)[nH][nH]1)Nc1cc(Cl)ccc1Cl | > 100 µM | > 100 µM | > 100 µM | > 100 µM | > 100 µM |  | > 100 µM | > 100 µM | > 100 µM |  |  |  |  |  |  |  | > 100 µM |  |  | 
20 | N#Cc1ncc(C(Cl)Cl)nc1Cl | > 10 µM | 5.3 µM | 3.87 µM | > 10 µM | 5.94 µM | 4.8 µM | 5.31 µM | 4.59 µM |  |  |  |  |  |  |  |  | 3.31 µM |  |  | 
21 | Cc1ccc2c(c1)[n+](=O)c(C(=O)c1cccs1)c(C(F)(F)F)n2[O-] | 11.2 µM and 17.8 µM | 0.332 µM | 7 µM and 14.8 µM | 2.46 µM and 5.87 µM | 2.59 µM | 1.97 µM | 50 µM and 20.4 µM | 2.6 µM and 0.979 µM |  | 2.24 µM and 3.91 µM |  | 0.753 µM and 0.618 µM | 0.786 µM and 0.842 µM | 0.854 µM | 2.02 µM and 3.58 µM |  |  | 0.923 µM and 0.163 µM | 1.54 µM and 0.356 µM | 0.603 µM
